Several values for one entry are separate records, joined by “and”; a condition that tells them apart may be missing. Identical values can stand only once. Like-named read-outs stand apart in the source and are kept apart here.
Key:
Assay type in all cases: cell-based
RXFP4 R194A = target: T1, RXFP4 R194A (Homo sapiens, UniProt Q8TDU9, R194A); test: cAMP accumulation, RXFP4 R194A
T1 construct: RXFP4(1-374)-; expressed in transfected cells; host or cells: HEK293T, transient (pCMV6)
Description: (§1) The full-length human RXFP4 (NCBI Reference Sequence: NM_181885.3) was cloned into a modified pFastBac vector (Invitrogen) with HA signal peptide to enhance receptor expression, followed by a 10× histidine tag and BRIL insertion at the N terminus. LgBiT subunit (Promega) was fused at the C terminus of RXFP4 connected by a 15-amino acid polypeptide linker. […] The engineered human Gαi2, Gβ1, bovine Gγ2, and scFv16 were cloned into the pFastBac vector (Invitrogen), respectively. For cAMP accumulation assay, human RXFP4 and RXFP3 (NCBI Reference Sequence: NM_016568.3) were cloned into pCMV6 constructs (OriGene Technologies). The mutant receptors were modified by site-directed mutagenesis in the setting of the WT constructs, with the primers designed by QuikChange Primer Design [QuickChange Primer Design (http://agilent.com.cn)] and carried out using Phanta Max Master (Vazyme). N-terminal Flag tag was added to both WT and mutant receptors for surface expression measurement. Sequences of all primers used in this study were provided in Supplementary Table 6, and all the constructs were confirmed by DNA sequencing.
(§2) CHO-K1 (ATCC, Cat#CCL-61) cells stably expressing human RXFP4 (hRXFP4-CHO) or RXFP3 (hRXFP3-CHO) were maintained in DMEM/F12 (Gibco) supplemented with 10% (v/v) fetal bovine serum (FBS) and 2 mM L-glutamine. Human embryonic kidney 293 T cells containing SV40 large T-antigen (HEK293T, ATCC, Cat#64127316) were maintained in DMEM (Gibco) supplemented with 10% (v/v) FBS, 1 mM sodium pyruvate (Gibco), 100 units/mL penicillin and 100 μg/mL streptomycin at 37 °C in 5% CO2. For cAMP assays in mutants, HEK293T cells were seeded onto 6-well cell culture plates at a density of 7 × 10^5 cells per well. After overnight incubation, cells were transfected with WT or mutant receptors using Lipofectamine 3000 transfection reagent (Invitrogen). Following 24 h culturing, the transfected cells were ready for detection.
(§3) Ligands were verified for their bioactivity in the beginning in hRXFP4-CHO, which were ready for use after 24 h culturing. For assaying mutants, HEK293T cells were used 24 h post transfection. Cells were digested with 0.02% (w/v) EDTA and seeded onto 384-well microtiter plates at a density of 8 × 10^5 cells/mL in cAMP stimulation buffer [HBSS supplemented with 5 mM HEPES, 0.1% (w/v) bovine serum albumin (BSA) and 0.5 mM 3-isobutyl-1-methylxanthine]. The cells were stimulated with different concentrations of ligands plus 1.5 μM forskolin in RXFP4 and 4 μM forskolin in RXFP3. […] The time-resolved fluorescence resonance energy transfer (TR-FRET) signals were detected by an EnVision multilabel plate reader (PerkinElmer) with the emission window ratio of 665 nm over 620 nm under 320 nm excitation. […]
(§4) Inhibition of forskolin-induced cAMP accumulation was performed in HEK293T cells transiently transfected with WT and mutant receptors. All the mutant constructs were modified by single-point mutation in the setting of the WT receptor. cAMP accumulation data were analyzed using a three-parameter logistic equation to determine pEC50 and Emax values. Emax values for mutants are defined as the window between the maximal response and vehicle control (no ligand) and expressed as a percentage of the WT. Cell surface expression was assessed by flow cytometry to detect the N-terminal Flag epitope label on the receptors and normalized to the WT receptor (shown as percentage). […]

RXFP4 L118S+V122S = target: T2, RXFP4 L118S+V122S (Homo sapiens, UniProt Q8TDU9, L118S/V122S); test: cAMP accumulation, RXFP4 L118S+V122S; settings: HEK293T
T2 construct: RXFP4(1-374)-; expressed in transfected cells; host or cells: HEK293T, transient (pCMV6)
T2 sequence (Q8TDU9 whole entry L118S/V122S): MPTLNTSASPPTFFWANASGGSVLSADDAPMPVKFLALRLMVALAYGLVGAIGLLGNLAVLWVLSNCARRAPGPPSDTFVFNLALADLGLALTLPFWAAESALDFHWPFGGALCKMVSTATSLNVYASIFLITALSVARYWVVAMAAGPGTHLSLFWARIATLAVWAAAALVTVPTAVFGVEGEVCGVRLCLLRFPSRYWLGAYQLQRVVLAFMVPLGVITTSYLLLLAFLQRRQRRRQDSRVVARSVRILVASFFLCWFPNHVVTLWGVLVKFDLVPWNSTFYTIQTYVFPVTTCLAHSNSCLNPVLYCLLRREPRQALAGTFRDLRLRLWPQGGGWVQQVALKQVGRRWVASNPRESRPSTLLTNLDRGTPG
Description: as §1
as §2, with “After overnight incubation, cells were transfected with WT or mutant receptors using Lipofectamine 3000 transfection reagent (Invitrogen).” left out
(§5) Ligands were verified for their bioactivity in the beginning in hRXFP4-CHO, which were ready for use after 24 h culturing. […] The time-resolved fluorescence resonance energy transfer (TR-FRET) signals were detected by an EnVision multilabel plate reader (PerkinElmer) with the emission window ratio of 665 nm over 620 nm under 320 nm excitation. […]
as §4

RXFP4 T295V = target: T3, RXFP4 T295V (Homo sapiens, UniProt Q8TDU9, T295V); test: cAMP accumulation, RXFP4 T295V
T3 construct: RXFP4(1-374)-; expressed in transfected cells; host or cells: HEK293T, transient (pCMV6)
T3 sequence (Q8TDU9 whole entry T295V): as the sequence (Q8TDU9 whole entry L118S/V122S) above, with S118L, S122V, T295V counted along it
Description: as §1
as §2, with “After overnight incubation, cells were transfected with WT or mutant receptors using Lipofectamine 3000 transfection reagent (Invitrogen).” left out
as §5, §4

human RXFP4 = target: T4, human RXFP4 (Homo sapiens, UniProt Q8TDU9); test: inhibition of forskolin-induced cAMP accumulation, WT RXFP4 (hRXFP4-CHO)
T4 construct: expressed in transfected cells
T4 sequence (Q8TDU9 whole entry): as the sequence (Q8TDU9 whole entry L118S/V122S) above, with S118L, S122V counted along it
Experimental: as §2, §3
All functional study data were analyzed using GraphPad Prism 8.3 (GraphPad Software) and presented as means ± S.E.M. from at least three independent experiments. Dose-response curves were evaluated with a three-parameter logistic equation. The significance was determined with either a two-tailed Student’s t-test or one-way ANOVA with Dunnett’s multiple comparison test, and P < 0.05 was considered statistically significant.

RXFP4 WT = target: T5, RXFP4 WT (Homo sapiens, UniProt Q8TDU9); test: cAMP accumulation, WT RXFP4 (HEK293T); settings: 1.5 μM forskolin, mean ± S.E.M.; for EC50: 40 min RT, TR-FRET, n = 6 to 8
T5 construct: RXFP4(1-374)-; expressed in transfected cells; host or cells: HEK293T, transient (pCMV6)
T5 sequence (Q8TDU9 whole entry): as the sequence (Q8TDU9 whole entry L118S/V122S) above, with S118L, S122V counted along it
Description: as §1
as §2, with “After overnight incubation, cells were transfected with WT or mutant receptors using Lipofectamine 3000 transfection reagent (Invitrogen).” left out
as §5, §4

RXFP4 F105A = target: T6, RXFP4 F105A (Homo sapiens, UniProt Q8TDU9, F105A); test: cAMP accumulation, RXFP4 F105A
T6 construct: RXFP4(1-374)-; expressed in transfected cells; host or cells: HEK293T, transient (pCMV6)
T6 sequence (Q8TDU9 whole entry F105A): as the sequence (Q8TDU9 whole entry L118S/V122S) above, with F105A, S118L, S122V counted along it
Description: as §1, §2, §3, §4

RXFP4 W97A = target: T7, RXFP4 W97A (Homo sapiens, UniProt Q8TDU9, W97A); test: cAMP accumulation, RXFP4 W97A
T7 construct: RXFP4(1-374)-; expressed in transfected cells; host or cells: HEK293T, transient (pCMV6)
T7 sequence (Q8TDU9 whole entry W97A): as the sequence (Q8TDU9 whole entry L118S/V122S) above, with W97A, S118L, S122V counted along it
Description: as §1, §2, §3, §4

RXFP4 H299A = target: T8, RXFP4 H299A (Homo sapiens, UniProt Q8TDU9, H299A); test: cAMP accumulation, RXFP4 H299A
T8 construct: RXFP4(1-374)-; expressed in transfected cells; host or cells: HEK293T, transient (pCMV6)
T8 sequence (Q8TDU9 whole entry H299A): as the sequence (Q8TDU9 whole entry L118S/V122S) above, with S118L, S122V, H299A counted along it
Description: as §1, §2, §3, §4

RXFP4 K273A = target: T9, RXFP4 K273A (Homo sapiens, UniProt Q8TDU9, K273A); test: cAMP accumulation, RXFP4 K273A
T9 construct: RXFP4(1-374)-; expressed in transfected cells; host or cells: HEK293T, transient (pCMV6)
T9 sequence (Q8TDU9 whole entry K273A): as the sequence (Q8TDU9 whole entry L118S/V122S) above, with S118L, S122V, K273A counted along it
Description: as §1
as §2, with “After overnight incubation, cells were transfected with WT or mutant receptors using Lipofectamine 3000 transfection reagent (Invitrogen).” left out
as §5, §4

[1] = HEK293T, 1.5 μM forskolin, mean ± S.E.M., n = 3, read-out: pEC50 (converted)
[2] = HEK293T, 1.5 μM forskolin, mean ± S.E.M., n = 3, N.A., not active, read-out: pEC50 (converted)

T1 sequence (Q8TDU9 whole entry R194A): as the sequence (Q8TDU9 whole entry L118S/V122S) above, with S118L, S122V, R194A counted along it

For CCOc1cc2c(cc1OC)CCN(C(=O)N1CCOCC1)[C@H]2CCc1c[nH]c2ccc(OC)cc12 [DC591053, (S)-(7-ethoxy-6-methoxy-1-(2-(5-methoxy-1H-indol-3-yl)ethyl)−3,4-dihydroisoquinolin-2(1H)-yl)(morpholino)methanone], the “decrease of potency vs WT” value (RXFP4 R194A; HEK293T) was 8.1 fold, the EC50 (RXFP4 R194A; [1]) was 282 nM and the Emax (RXFP4 R194A; HEK293T, mean ± S.E.M.) was 81.10 ± 7.60 % WT. The “decrease of potency vs WT” value (RXFP4 L118S+V122S) was 20.9 fold, the EC50 (RXFP4 L118S+V122S; 1.5 μM forskolin, mean ± S.E.M., n = 3, N.A., not active) was 724 nM and the Emax (RXFP4 L118S+V122S; mean ± S.E.M.) was 84.85 ± 8.36 % WT. The EC50 (RXFP4 T295V; HEK293T, 1.5 μM forskolin, mean ± S.E.M., n = 3 to 5, read-out: pEC50 (converted)) was 64.6 nM, the Emax (RXFP4 T295V; HEK293T, mean ± S.E.M.) was 30.00 ± 4.54 % WT and the “agonism” value (human RXFP4; stably-transfected CHO-K1) was “full agonism”. The EC50 (human RXFP4; stably-transfected CHO-K1, 1.5 μM forskolin, 40 min RT, TR-FRET, mean ± S.E.M., n = 3, read-out: pEC50 (converted)) was 57.5 nM, the EC50 (RXFP4 WT; HEK293T, read-out: pEC50 (converted)) was 34.7 nM and the Emax (RXFP4 WT; HEK293T) was 97.18 ± 3.11 % WT. The “decrease of potency vs WT” value (RXFP4 F105A; HEK293T) was 4.9 fold, the EC50 (RXFP4 F105A; [1]) was 170 nM and the Emax (RXFP4 F105A; HEK293T, mean ± S.E.M.) was 57.39 ± 4.17 % WT. For the same compound, the “decrease of potency vs WT” value (RXFP4 W97A; HEK293T) was 1.6 fold, the EC50 (RXFP4 W97A; [2]) was 56.2 nM and the Emax (RXFP4 W97A; HEK293T, mean ± S.E.M.) was 108.65 ± 10.04 % WT. The “reduction of Emax vs WT” value (RXFP4 H299A; HEK293T) was 65%, the EC50 (RXFP4 H299A; [2]) was 3.63 nM and the Emax (RXFP4 H299A; HEK293T, mean ± S.E.M.) was 36.04 ± 4.01 % WT. It also gave an EC50 (RXFP4 K273A; HEK293T, 1.5 μM forskolin, mean ± S.E.M., n = 3 or 4, read-out: pEC50 (converted)) of 1860 nM and an Emax (RXFP4 K273A; HEK293T, mean ± S.E.M.) of 68.51 ± 8.34 % WT.
CC[C@H](C)[C@@H]1NC(=O)[C@H](Cc2ccc(O)cc2)NC(=O)[C@H]([C@@H](C)CC)NC(=O)[C@H](C(C)C)NC(=O)[C@H]([C@@H](C)O)NC(=O)[C@H](CCCNC(=N)N)NC(=O)[C@H]([C@@H](C)CC)NC(=O)[C@H](Cc2ccc(O)cc2)NC(=O)[C@H](CCC(=O)O)NC(=O)[C@H](CC(C)C)NC(=O)CNC(=O)[C@@H](NC(=O)[C@H](CC(C)C)NC(=O)[C@H](CCCNC(=N)N)NC(=O)[C@@H](NC(=O)[C@H](CO)NC(=O)[C@H](CCC(=O)O)NC(=O)[C@@H](N)CCCCN)C(C)C)CSSC[C@@H]2NC(=O)[C@@H](NC(=O)[C@H](CC(C)C)NC(=O)[C@@H](NC(=O)[C@H](CCC(N)=O)NC(=O)[C@H](CC(C)C)NC(=O)[C@H](CC(=O)O)NC(=O)[C@@H](N)CCC(N)=O)[C@@H](C)O)CSSC[C@H](NC(=O)CNC(=O)[C@H](CC(=O)O)NC(=O)[C@H]([C@@H](C)O)NC2=O)C(=O)N[C@@H](CO)C(=O)N[C@@H](CCSC)C(=O)N[C@@H]([C@@H](C)O)C(=O)N[C@@H](CC(=O)O)C(=O)N[C@@H](CC(C)C)C(=O)N[C@@H](CO)C(=O)N[C@@H](C)C(=O)N[C@@H](CC(C)C)C(=O)N[C@H](C(=O)O)CSSC[C@@H](C(=O)N[C@@H](C)C(=O)N[C@@H](CO)C(=O)N[C@@H](CO)C(=O)N[C@@H](CCCNC(=N)N)C(=O)N[C@@H](Cc2c[nH]c3ccccc23)C(=O)O)NC1=O [INSL5, insulin-like peptide 5] was tested, and the EC50 (RXFP4 R194A) was 1.66 nM, the Emax (RXFP4 R194A; HEK293T, mean ± S.E.M.) was 79.76 ± 6.06 % WT and the “response” value (RXFP4 L118S+V122S) was “inactive”. It also gave an EC50 (RXFP4 T295V) of 0.692 nM, an Emax (RXFP4 T295V; HEK293T, mean ± S.E.M.) of 91.17 ± 6.47 % WT and an EC50 (human RXFP4) of 1.58 nM. For the same compound, the Emax (RXFP4 WT; HEK293T) was 99.88 ± 2.28 % WT and 98.86 ± 3.65 % WT, the EC50 (RXFP4 WT; pEC50, HEK293T) was 0.759 nM and 0.955 nM and the EC50 (RXFP4 F105A) was 10 nM. It also gave an Emax (RXFP4 F105A; HEK293T, mean ± S.E.M.) of 80.16 ± 4.08 % WT, an EC50 (RXFP4 W97A) of 15.5 nM and an Emax (RXFP4 W97A; HEK293T, mean ± S.E.M.) of 61.33 ± 5.34 % WT. The EC50 (RXFP4 H299A) was 0.955 nM, the Emax (RXFP4 H299A; HEK293T, mean ± S.E.M.) was 30.77 ± 3.77 % WT and the EC50 (RXFP4 K273A) was 3.55 nM. For the same compound, the Emax (RXFP4 K273A; HEK293T, mean ± S.E.M.) was 58.10 ± 7.38 % WT.

— paper PMC9886975, “Ligand recognition mechanism of the human relaxin family peptide receptor 4 (RXFP4)” (Nature Communications, 2023)
